The values that follow come from US20120064121A1, “PYRIDINE COMPOUNDS FOR INFLAMMATION AND IMMUNE-RELATED USES” (SYNTA PHARMACEUTICALS CORP., priority 2008, published 2012).

pIC50: −log10 of the molar value. Counter-ions that a name gives are not always drawn.

The assay concerns IL-2 production. The experiment in a line: Inhibition of IL-2 production in PHA-activated Jurkat cells (ELISA). It is filed as cell-based. The conditions noted are these: PHA 2.5 μg/mL, IL-2 ELISA. The protocol:
Jurkat cells were placed in a 96 well plate (0.5 million cells per well in 1% FBS medium) then a test compound of this invention was added at different concentrations. After 10 minutes, the cells were activated with PHA (final concentration 2.5 μg/mL) and incubated for 20 hours at 37° C. under CO2. The final volume was 200 μL. Following incubation, the cells were centrifuged and the supernatants collected and stored at −70° C. prior to assaying for IL-2 production. A commercial ELISA kit (IL-2 Eli-pair, Diaclone Research, Besancon, France) was used to detect production of IL-2, from which dose response curves were obtained. The IC50 value was calculated as the concentration at which 50% of maximum IL-2 production after stimulation was inhibited versus a non-stimulation control.

One may read the pIC50 as the IC50 on a negative log10 scale, so that one unit is a factor of ten. Low readings indicate a high IC50, high ones a low IC50. Where the note is “20 hours”, `Fc1cccc(F)c1CNc1ccc(-c2cc(-c3nccs3)ccc2Cl)cn1` [Compound 1, 5-(2-chloro-5-(thiazol-2-yl)phenyl)-N-(2,6-difluorobenzyl)pyridin-2-amine] showed a pIC50 of 7.25.
In turn, `Fc1cccc(F)c1CNc1ccc(-c2cc(-c3nccs3)ccc2Cl)cn1` [Compound 2, 5-(2-chloro-5-(thiazol-2-yl)phenyl)-N-(2,6-difluorobenzyl)pyridin-2-amine hydrochloride] gave a pIC50 (20 hours, hydrochloride) of 7.68.
The compound `Cc1ccc(-c2ccno2)cc1-c1ccc(NCc2c(F)cccc2F)cn1` [Compound 3, N-(2,6-difluorobenzyl)-6-(5-(isoxazol-5-yl)-2-methylphenyl)pyridin-3-amine] gave a pIC50 (Homo sapiens, Jurkat, 20 h) of 7.32.
In the case of `Fc1cccc(F)c1CNc1ccc(-c2cc(-c3nccs3)ccc2Cl)nc1` [Compound 4, 6-(2-chloro-5-(thiazol-2-yl)phenyl)-N-(2,6-difluorobenzyl)pyridin-3-amine], the pIC50 (Homo sapiens, Jurkat, 20 h) was 7.72.
Where the note is “Homo sapiens, Jurkat, 20 h”, `Fc1cccc(F)c1CNc1ccc(-c2cc(-c3ncco3)ccc2Cl)cn1` [Compound 5, 5-(2-chloro-5-(oxazol-2-yl)phenyl)-N-(2,6-difluorobenzyl)pyridin-2-amine] had a pIC50 of 7.77.
With `Cc1ccc(-c2cccnc2)cc1-c1ccc(NC(=O)c2c(F)cccc2F)nc1` [Compound 6, 2,6-difluoro-N-(5-(2-methyl-5-(pyridin-3-yl)phenyl)pyridin-2-yl)benzamide], where the note is “Homo sapiens, Jurkat, 20 h”, the pIC50 is 8.52.
On to `Cc1ccc(-c2ncccn2)cc1-c1ccc(NC(=O)c2c(F)cccc2F)nc1` [Compound 7, 2,6-difluoro-N-(5-(2-methyl-5-(pyrimidin-2-yl)phenyl)pyridin-2-yl)benzamide], for which the pIC50 (Homo sapiens, Jurkat, 20 h) is 7.92.
`O=C(Nc1ccc(-c2cc(-c3nccs3)ccc2Cl)cn1)c1ccncc1F` [Compound 8, N-(5-(2-chloro-5-(thiazol-2-yl)phenyl)pyridin-2-yl)-3-fluoroisonicotinamide]: the pIC50 (Homo sapiens, Jurkat, 20 h) is 7.96.
`Cc1ccc(-c2cccnc2)cc1-c1ccc(NC(=O)c2c(F)cccc2Cl)nc1` [Compound 9, 2-chloro-6-fluoro-N-(5-(2-methyl-5-(pyridin-3-yl)phenyl)pyridin-2-yl)benzamide]: where the note is “20 hours”, the pIC50 is less than 6.00.
Take `Cc1ccc(-c2cccnc2)cc1-c1ccc(NC(=O)c2c(F)cccc2Cl)nc1` [Compound 10, 2-chloro-6-fluoro-N-(5-(2-methyl-5-(pyridin-3-yl)phenyl)pyridin-2-yl)benzamide hydrochloride]: the pIC50 (20 hours, hydrochloride) was 8.15.
Where the note is “Homo sapiens, Jurkat, 20 h”, `O=C(Nc1ccc(-c2cc(-c3nccs3)ccc2Cl)cn1)c1ccccc1F` [Compound 11, N-(5-(2-chloro-5-(thiazol-2-yl)phenyl)pyridin-2-yl)-2-fluorobenzamide] had a pIC50 of 7.89.
Regarding `O=C(Nc1ccc(-c2cc(-c3nccs3)ccc2Cl)cn1)c1c(F)cccc1Cl` [Compound 12, 2-chloro-N-(5-(2-chloro-5-(thiazol-2-yl)phenyl)pyridin-2-yl)-6-fluorobenzamide], the pIC50 (Homo sapiens, Jurkat, 20 h) is 8.00.
With `O=C(Nc1ccc(-c2cc(-c3nccs3)ccc2Cl)cn1)c1c(F)cccc1C(F)(F)F` [Compound 13, N-(5-(2-chloro-5-(thiazol-2-yl)phenyl)pyridin-2-yl)-2-fluoro-6-(trifluoromethyl)benzamide], the pIC50 (Homo sapiens, Jurkat, 20 h) was 7.18.
Regarding `O=C(Nc1ccc(-c2cc(-c3nccs3)ccc2Cl)nc1)c1ccccc1C(F)(F)F` [Compound 14, N-(6-(2-chloro-5-(thiazol-2-yl)phenyl)pyridin-3-yl)-2-(trifluoromethyl)benzamide], the pIC50 (Homo sapiens, Jurkat, 20 h) was 7.15.
Turning to `Cc1cc[nH]c1C(=O)Nc1ccc(-c2cc(-c3nccs3)ccc2Cl)cn1` [Compound 15, N-(5-(2-chloro-5-(thiazol-2-yl)phenyl)pyridin-2-yl)-3-methyl-1H-pyrrole-2-carboxamide], the pIC50 (Homo sapiens, Jurkat, 20 h) was 6.46.
The same measure, in the same setting: with `Cn1cncc1C(=O)Nc1ccc(-c2cc(-c3nccs3)ccc2Cl)cn1` [Compound 16, N-(5-(2-chloro-5-(thiazol-2-yl)phenyl)pyridin-2-yl)-1-methyl-1H-imidazole-5-carboxamide] the figure was 7.04; with `Cc1ncsc1C(=O)Nc1ccc(-c2cc(-c3nccs3)ccc2Cl)cn1` [Compound 17, N-(5-(2-chloro-5-(thiazol-2-yl)phenyl)pyridin-2-yl)-4-methylthiazole-5-carboxamide], 7.09; with `O=C(Nc1ccc(-c2cc(-c3cccnc3)ccc2Cl)cn1)c1c(F)cccc1F` [Compound 18, N-(5-(2-chloro-5-(pyridin-3-yl)phenyl)pyridin-2-yl)-2,6-difluorobenzamide], 8.22.
